According to patent US20220257597A1, “Methods of Administering Elagolix” (AbbVie Inc., priority 2021, published 2022):
Like-named read-outs stand apart in the source and are kept apart here. Values belong to the compound of their own block, whether it stands above or below them.

What was measured:
[1] = Phase 1 open-label study: coadministration of combined oral contraceptive (EE+LNG) with elagolix sodium, pharmacokinetics, safety and tolerability; format: in vivo, human; conditions: for AUCinf ratio, co-administered in the presence of elagolix vs alone / Cmax ratio, co-administered in the presence of elagolix vs alone: elagolix 200 mg twice daily
Method: Objective: To evaluate the effect of elagolix on the pharmacokinetics, safety, and tolerability of a single dose of a combined oral contraceptive (COC) containing EE and LNG in healthy premenopausal female subjects. […] [table] […] Diagnosis and Main Criteria for Inclusion: Subjects were premenopausal females, and age was between 18 and 49 years, inclusive. Test Product, Dose/Strength/Concentration, and Mode of Administration: […] EE/LNG 0.02 mg/0.1 mg tablet; All study drugs were administered orally. Duration of Treatment: […] EE/LNG: 0.02 mg/0.1 mg on two separate occasions. Criteria for Evaluation: Pharmacokinetic: Cmax, Tmax, t1/2 and AUC. Safety: Vital signs, physical examinations, laboratory tests, and adverse events. […] The tabulation of the number of subjects with treatment-emergent adverse events also was provided with further breakdowns by severity rating and relationship to study drug.

[2] = Drug interaction studies: change in pharmacokinetics of co-administered drug in the presence of elagolix; format: in vivo, human; conditions: for changes in exposures when co-administered with elagolix, in words: elagolix 300 mg twice daily
Method: Drug interaction studies were performed with elagolix and other drugs likely to be co-administered and with drugs commonly used as probes for pharmacokinetic interactions. Tables 8 and 9 summarize the pharmacokinetic effects when elagolix was co-administered with these drugs.

[3] = Drug interactions: effects of ORIAHNN on other drugs; conditions: co-administration of ORIAHNN
[4] = Drug interactions: effects of ORILISSA on other drugs; conditions: co-administration of ORILISSA
[5] = Drug interaction studies: change in pharmacokinetics of elagolix in the presence of co-administered drugs; format: in vivo, human; conditions: for changes in elagolix exposures when co-administered, in words: elagolix 300 mg twice daily, rosuvastatin 20 mg once daily, sertraline 25 mg once daily or fluconazole 200 mg single dose
[6] = system: CYP3A; assay: Substrate of / metabolism by CYP3A; format: in vitro ADME
[7] = COC 20 mcg EE/0.1 mg levonorgestrel
[8] = COC 20 mcg EE/0.1 mg levonorgestrel, listed as EE
[9] = Study Day 1: EE/LNG 0.02 mg/0.1 mg
[10] = ethinyl estradiol 20 mcg/levonorgestrel 0.1 mg single dose, elagolix 200 mg twice daily x 15 days, N 20
[11] = following elagolix 200 mg BID for 14 days
[12] = ethinyl estradiol 35 mcg and triphasic norgestimate 0.18/0.215/0.25 mg once daily, elagolix 150 mg once daily, N 21
[13] = digoxin 0.5 mg single dose, elagolix 200 mg twice daily x 10 days, N 11
[14] = rosuvastatin 20 mg once daily, elagolix 300 mg twice daily x 7 days, N 10

SMILES: C#C[C@]1(O)CC[C@H]2[C@@H]3CCc4cc(O)ccc4[C@H]3CC[C@@]21C [ethinyl estradiol, 17α-Ethynylestra-1,3,5(10)-triene-3,17β-diol]
AUCinf ratio, co-administered in the presence of elagolix vs alone [1, 7]: 2.18
Cmax ratio, co-administered in the presence of elagolix vs alone [1, 7]: 1.36
increase in plasma EE concentration compared to COC alone ([1]; COC 20 mcg EE/0.1 mg levonorgestrel, elagolix 200 mg twice daily for 14 days): 2.2 fold
AUCinf ratio, co-administered in the presence of elagolix vs alone [1, 8]: about 2.18
Cmax ratio, co-administered in the presence of elagolix vs alone [1, 8]: about 1.36
AUCinf, Central Value Reference [1, 9]: 0.494 ng·h/mL
CCmax, Central Value Reference [1, 9]: 49.0 pg/mL
CCmax, Central Value Test ([1]; Study Day 18: EE/LNG 0.02 mg/0.1 mg + elagolix 200 mg): 66.4 pg/mL
Ratio (90% CI) AUC, co-administration with elagolix vs medication alone [1, 10]: 2.18
Ratio (90% CI) Cmax, co-administration with elagolix vs medication alone [1, 10]: 1.36
AUC(0-t) ([1]; female, human, in vivo, oral, Study Day 1: EE/LNG 0.02 mg/0.1 mg, read-out: AUCt, Central Value Reference): 0.437 ng·h/mL
AUC(0-inf) ([1]; female, human, in vivo, oral, Study Day 18: EE/LNG 0.02 mg/0.1 mg + elagolix 200 mg, read-out: AUCinf, Central Value Test): 1.08 ng·h/mL
AUC(0-t) ([1]; female, human, in vivo, oral, Study Day 18: EE/LNG 0.02 mg/0.1 mg + elagolix 200 mg, read-out: AUCt, Central Value Test): 0.941 ng·h/mL
increase in AUCinf [1, 11]: 118%
increase in Cmax [1, 11]: 36%
Ratio (90% CI) AUC, co-administration with elagolix vs medication alone [2, 12]: 1.30
Ratio (90% CI) Cmax, co-administration with elagolix vs medication alone [2, 12]: 1.15
Effect on Plasma Exposure of Concomitant Drug (direction of change in AUC) [3]: ↑ethinyl
Effect on Plasma Exposure of Concomitant Drug (direction of change in AUC) [4]: ↑ethinyl

SMILES: C#C[C@]1(OC(C)=O)CC[C@H]2[C@@H]3CCC4=CC(=O)CC[C@@H]4[C@H]3CC[C@@]21C [norethindrone acetate]
metabolism by CYP3A [6]: metabolized partially by CYP3A

SMILES: C[C@H]1O[C@@H](O[C@H]2[C@@H](O)C[C@H](O[C@H]3[C@@H](O)C[C@H](O[C@H]4CC[C@@]5(C)[C@H](CC[C@@H]6[C@@H]5C[C@@H](O)[C@]5(C)[C@@H](C7=CC(=O)OC7)CC[C@]65O)C4)O[C@@H]3C)O[C@@H]2C)C[C@H](O)[C@@H]1O [digoxin]
Ratio (90% CI) AUC, co-administration with elagolix vs medication alone [2, 13]: 1.26
Ratio (90% CI) Cmax, co-administration with elagolix vs medication alone [2, 13]: 1.71
Effect on Plasma Exposure of Concomitant Drug (direction of change in AUC) [3]: ↑ digoxin
Effect on Plasma Exposure of Concomitant Drug (direction of change in AUC) [4]: ↑ digoxin

SMILES: C[C@]12CC[C@@H]3c4ccc(O)cc4CC[C@H]3[C@@H]1CC[C@@H]2O [estradiol]
metabolism by CYP3A [6]: metabolized partially by CYP3A

SMILES: CO[C@H]1/C=C/O[C@@]2(C)Oc3c(C)c(O)c4c(O)c(c(/C=N/N5CCN(C)CC5)c(O)c4c3C2=O)NC(=O)/C(C)=C\C=C\[C@H](C)[C@H](O)[C@@H](C)[C@@H](O)[C@@H](C)[C@H](OC(C)=O)[C@@H]1C [Rifampin]
effect of concomitant use on plasma concentrations of elagolix, in words ([5]; concomitant use of rifampin): increased

The remaining lines, values ahead:

changes in elagolix exposures when co-administered, in words [5]: No clinically significant changes
changes in exposures when co-administered with elagolix, in words [2]: No clinically significant changes
SMILES: OC(Cn1cncn1)(Cn1cncn1)c1ccc(F)cc1F [fluconazole]

changes in elagolix exposures when co-administered, in words [5]: No clinically significant changes
Ratio (90% CI) AUC, co-administration with elagolix vs medication alone [2, 14]: 0.60
Ratio (90% CI) Cmax, co-administration with elagolix vs medication alone [2, 14]: 0.99
Effect on Plasma Exposure of Concomitant Drug (direction of change in AUC) [3]: ↓ rosuvastatin
Effect on Plasma Exposure of Concomitant Drug (direction of change in AUC) [4]: ↓ rosuvastatin
SMILES: CC(C)c1nc(N(C)S(C)(=O)=O)nc(-c2ccc(F)cc2)c1/C=C/[C@@H](O)C[C@@H](O)CC(=O)O [rosuvastatin]

changes in elagolix exposures when co-administered, in words [5]: No clinically significant changes
changes in exposures when co-administered with elagolix, in words [2]: No clinically significant changes
SMILES: CN[C@H]1CC[C@@H](c2ccc(Cl)c(Cl)c2)c2ccccc21 [sertraline]
